The values that follow come from patent EP0441218A2, “Anthracycline-glycosyl prodrugs, process for their preparation and their use in combination with functionalised tumour-specific enzyme conjugates” (BEHRINGWERKE Aktiengesellschaft, priority 1990, dated 1991).

Data set [1] is described as follows: Stability of the prodrug on incubation in enzyme-free buffer. In kind it is physicochemical. The conditions noted are these: Phosphat-Puffer pH 5, 37 °C, without enzyme, over the same period (ca. 54 h). On the procedure: (§1) Spaltung von 14-O-α-D-Galacto-hexo-pyranosyl-doxorubicin (Verbindung 10) durch Human-Plazenta-α-Galactosidase A 0.5 mg der Ausgangsverbindung wurden in 0.5 ml Phosphat-Puffer, pH 5, enthaltend 0.03 U/ml der aus Human-Plazenta isolierten α-Galactosidase A gelöst und bei 37 °C im Dunklen inkubiert. Nach verschiedenen Inkubationszeiten wurden Proben des Inkubationsansatzes entnommen und direkt mittels Hochdruckflüssigkeitschromatographie analysiert (Säule: Nucleosil 100 (RP 18, 5 µm Teilchendurchmesser, 125 x 4.6 mm; Mobile Phase: Gradient aus Lösung A und B: 0 min - 20% A, 10 min - 30% A, 15 min - 30% A, Lösung A = 100% Acetonitril, Lösung B = 0.02 m Phosphat-Puffer pH 3.0; Flußrate: 1 ml/min; Detektion: Fluoreszenz, Ex 495 nm, Em 560 nm). Die Retentionszeit der Ausgangsverbindung betrug unter diesen Chromatographiebedingungen 9.0 min. Die während der Inkubation entstehende Verbindung wies eine mit Adriamycin identische Retentionszeit von 12.6 min auf.
(§2) Die Halbwertszeit der Spaltung betrug unter dem beschriebenen Bedingungen ca. 54 h (extrapolierter Wert). Bei der Inkubation der Ausgangsverbindung in enzymfreier Pufferlösung blieb die Verbindung über diesen Zeitraum stabil.

Data set [2] has as its target T1, Human-Plazenta-α-Galactosidase A (Homo sapiens, UniProt P06280).
T1 construct: der aus Human-Plazenta isolierten α-Galactosidase A; from tissue; host or cells: human placenta
T1 sequence (P06280 32-429): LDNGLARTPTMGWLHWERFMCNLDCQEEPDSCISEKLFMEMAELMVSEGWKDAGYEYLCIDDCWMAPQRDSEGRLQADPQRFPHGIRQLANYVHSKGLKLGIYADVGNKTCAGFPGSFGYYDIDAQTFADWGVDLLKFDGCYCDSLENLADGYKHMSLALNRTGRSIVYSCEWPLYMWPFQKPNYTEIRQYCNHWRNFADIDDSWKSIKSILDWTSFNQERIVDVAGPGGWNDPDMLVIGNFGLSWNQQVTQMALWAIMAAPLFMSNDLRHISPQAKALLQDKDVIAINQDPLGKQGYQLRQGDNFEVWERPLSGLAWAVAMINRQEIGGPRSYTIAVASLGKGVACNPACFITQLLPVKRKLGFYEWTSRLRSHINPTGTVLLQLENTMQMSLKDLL
Briefly: Cleavage of the prodrug by human placenta α-galactosidase A (HPLC analysis). It counts as biochemical. The conditions noted are these: placenta alpha-galactosidase a, 0.03 U/ml α-Galactosidase A, Phosphat-Puffer pH 5, 37 °C, dark, extrapolated value, read-out: Halbwertszeit der Spaltung (converted). As to the method:
as §1, §2

The target in data set [3] is T2, Kaffeebohnen-α-Galactosidase (Coffea arabica, UniProt Q42656).
T2 construct: purchased Sigma
T2 sequence (Q42656 16-378): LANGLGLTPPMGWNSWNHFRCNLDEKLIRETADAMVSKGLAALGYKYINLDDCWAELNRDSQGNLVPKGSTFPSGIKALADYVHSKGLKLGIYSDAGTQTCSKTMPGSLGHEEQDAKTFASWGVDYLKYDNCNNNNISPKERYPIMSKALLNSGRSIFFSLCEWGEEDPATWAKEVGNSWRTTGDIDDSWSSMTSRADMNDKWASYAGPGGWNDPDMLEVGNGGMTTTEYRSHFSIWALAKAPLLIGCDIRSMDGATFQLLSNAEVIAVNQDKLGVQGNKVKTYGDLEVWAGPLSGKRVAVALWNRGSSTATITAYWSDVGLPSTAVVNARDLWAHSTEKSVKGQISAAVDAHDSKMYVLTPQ
Briefly: Cleavage of the prodrug by coffee bean α-galactosidase (HPLC analysis). In kind it is biochemical. As to conditions: coffee bean alpha-galactosidase; 0.03 U/ml Kaffeebohnen-α-Galactosidase (Sigma), Phosphat-Puffer pH 5, 37 °C; read-out: Halbwertszeit der Spaltung. On the procedure: as §1
Spaltung von 14-O-α-D-Galacto-hexo-pyranosyl-doxorubicin (Verbindung 10) durch Kaffebohnen-α-Galactosidase Die Ausgangsverbindung wurde unter den gleichen wie in Beispiel 11 beschriebenen Bedingungen in Gegenwart von 0.03 U/ml Kaffeebohnen-α-Galactosidase (Sigma) inkubiert. Die Halbwertszeit der Spaltung betrug in Gegenwart des Enzyms ca. 20 min.

Take `COc1cccc2c1C(=O)c1c(O)c3c(c(O)c1C2=O)C[C@@](O)(C(=O)CO[C@H]1O[C@H](CO)[C@H](O)[C@H](O)[C@H]1O)C[C@@H]3O[C@H]1C[C@H](N)[C@H](O)[C@H](C)O1` [Verbindung 10, 14-O-α-D-Galactohexopyranosyl-doxorubicin]: the “Stability in enzymfreier Pufferlösung” value in data set [1] is “stabil”. Further, the half-life in data set [2] is about 54 h; in data set [3], about 0.333 h.
